Where two headings read alike, the source gives them in different places.
Biological target: Recombinant human cathepsin S (CatS) (Homo sapiens, UniProt P25774)
Test: Recombinant human cathepsin S (CatS) inhibition assay, fluorogenic substrate Z-Valine-Valine-Arginine-AMC;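 also: Baculovirus-expressed CatS in pH 5.0 sodium acetate buffer with DTT and NaCl, fluorescence read each minute over 20 min, inhibition derived from rate slope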

Sequence of Recombinant human cathepsin S (CatS) (P25774 115-331): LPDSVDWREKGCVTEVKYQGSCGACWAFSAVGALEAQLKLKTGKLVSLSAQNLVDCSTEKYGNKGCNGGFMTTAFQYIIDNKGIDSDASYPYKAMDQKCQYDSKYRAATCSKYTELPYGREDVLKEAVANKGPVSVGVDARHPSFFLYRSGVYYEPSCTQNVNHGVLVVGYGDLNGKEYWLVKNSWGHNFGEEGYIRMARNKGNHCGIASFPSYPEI

Row | IC50 [nM] | SMILES | IC50 (CatS IC50) [nM]
1 | 570 | CC(NCc1cccc(C#Cc2cc(-c3nn(CCCN4CCOCC4)c4c3CN(S(C)(=O)=O)CC4)ccc2Cl)c1)c1ccccc1 (centres unmarked) [Example 507, N-{[3-({2-Chloro-5-[5-(methylsulfonyl)-1-(3-morpholin-4-ylpropyl)-4,5,6,7-tetrahydro-1H-pyrazolo[4,3-c]pyridin-3-yl]phenyl}ethynyl)phenyl]methyl}-1-phenylethanamine] | 
2 |  | Cc1cccc(CNCc2ccc(C#Cc3cc(-c4nn(CCCN5CCSCC5)c5c4CN(C(N)=O)CC5)ccc3Cl)cc2)c1 [Example 508, 3-(4-Chloro-3-{[4-({[(3-methylphenyl)methyl]amino}methyl)phenyl]ethynyl}phenyl)-1-(3-thiomorpholin-4-ylpropyl)-1,4,6,7-tetrahydro-5H-pyrazolo[4,3-c]pyridine-5-carboxamide] | 110
3 |  | CS(=O)(=O)N1CCc2c(c(-c3ccc(Cl)c(C#Cc4cccc(CNCCCO)c4)c3)nn2CCCN2CCOCC2)C1 [Example 509, 3-({[3-({2-Chloro-5-[5-(methylsulfonyl)-1-(3-morpholin-4-ylpropyl)-4,5,6,7-tetrahydro-1H-pyrazolo[4,3-c]pyridin-3-yl]phenyl}ethynyl)phenyl]methyl}amino)propan-1-ol] | 500
4 | 450 | CS(=O)(=O)N1CCc2c(c(-c3ccc(Cl)c(C#Cc4cccc(CNCC5CCCO5)c4)c3)nn2CCCN2CCOCC2)C1 (centres unmarked) [Example 510, 1-[3-({2-Chloro-5-[5-(methylsulfonyl)-1-(3-morpholin-4-ylpropyl)-4,5,6,7-tetrahydro-1H-pyrazolo[4,3-c]pyridin-3-yl]phenyl}ethynyl)phenyl]-N-(tetrahydrofuran-2-ylmethyl)methanamine] | 
5 |  | CS(=O)(=O)N1CCc2c(c(-c3ccc(Cl)c(C#Cc4cccc(CNc5ccccc5)c4)c3)nn2CCCN2CCOCC2)C1 [Example 511, N-{[3-({2-Chloro-5-[5-(methylsulfonyl)-1-(3-morpholin-4-ylpropyl)-4,5,6,7-tetrahydro-1H-pyrazolo[4,3-c]pyridin-3-yl]phenyl}ethynyl)phenyl]methyl}aniline] | 1610
6 |  | C[C@H]1COCCN1CCCn1nc(-c2ccc(Cl)c(C#Cc3ccc4c(c3)CCN(C3CC3)C4)c2)c2c1CCN(S(C)(=O)=O)C2 [Example 512, 6-({2-Chloro-5-[1-{3-[(3S)-3-methylmorpholin-4-yl]propyl}-5-(methylsulfonyl)-4,5,6,7-tetrahydro-1H-pyrazolo[4,3-c]pyridin-3-yl]phenyl}ethynyl)-2-cyclopropyl-1,2,3,4-tetrahydroisoquinoline] | 220
7 | 230 | NC(=O)N1CCc2c(c(-c3ccc(Cl)c(C#Cc4cccc(CNCc5ccccc5Cl)c4)c3)nn2CCCN2CCSCC2)C1 [Example 513, 3-(4-Chloro-3-{[3-({[(2-chlorophenyl)methyl]amino}methyl)phenyl]ethynyl}phenyl)-1-(3-thiomorpholin-4-ylpropyl)-1,4,6,7-tetrahydro-5H-pyrazolo[4,3-c]pyridine-5-carboxamide] | 
8 |  | NC(=O)N1CCc2c(c(-c3ccc(Cl)c(C#Cc4cccc(CNCc5cccc(Cl)c5)c4)c3)nn2CCCN2CCSCC2)C1 [Example 514, 3-(4-Chloro-3-{[3-({[(3-chlorophenyl)methyl]amino}methyl)phenyl]ethynyl}phenyl)-1-(3-thiomorpholin-4-ylpropyl)-1,4,6,7-tetrahydro-5H-pyrazolo[4,3-c]pyridine-5-carboxamide] | 140
9 |  | NC(=O)N1CCc2c(c(-c3ccc(Cl)c(C#Cc4cccc(CNCc5ccccc5F)c4)c3)nn2CCCN2CCSCC2)C1 [Example 515, 3-(4-Chloro-3-{[3-({[(2-fluorophenyl)methyl]amino}methyl)phenyl]ethynyl}phenyl)-1-(3-thiomorpholin-4-ylpropyl)-1,4,6,7-tetrahydro-5H-pyrazolo[4,3-c]pyridine-5-carboxamide] | 250
10 |  | NC(=O)N1CCc2c(c(-c3ccc(Cl)c(C#Cc4cccc(CNCc5ccc(F)cc5)c4)c3)nn2CCCN2CCSCC2)C1 [Example 517, 3-(4-Chloro-3-{[3-({[(4-fluorophenyl)methyl]amino}methyl)phenyl]ethynyl}phenyl)-1-(3-thiomorpholin-4-ylpropyl)-1,4,6,7-tetrahydro-5H-pyrazolo[4,3-c]pyridine-5-carboxamide] | 190
11 |  | CN1CCc2cc(C#Cc3cc(-c4nn(CCCN5CCOCC5)c5c4CN(S(C)(=O)=O)CC5)ccc3Cl)ccc2C1 [Example 518, 6-({2-Chloro-5-[5-(methylsulfonyl)-1-(3-morpholin-4-ylpropyl)-4,5,6,7-tetrahydro-1H-pyrazolo[4,3-c]pyridin-3-yl]phenyl}ethynyl)-2-methyl-1,2,3,4-tetrahydroisoquinoline] | 390
12 |  | C[C@H]1COCCN1CCCn1nc(-c2ccc(Cl)c(C#Cc3ccc4c(c3)CCN(C)C4)c2)c2c1CCN(S(C)(=O)=O)C2 [Example 519, 6-({2-Chloro-5-[1-{3-[(3S)-3-methylmorpholin-4-yl]propyl}-5-(methylsulfonyl)-4,5,6,7-tetrahydro-1H-pyrazolo[4,3-c]pyridin-3-yl]phenyl}ethynyl)-2-methyl-1,2,3,4-tetrahydroisoquinoline] | 400
13 |  | CC(C)CNCc1cccc(C#Cc2cc(-c3nn(CCCN4CCOCC4)c4c3CN(S(C)(=O)=O)CC4)ccc2Cl)c1 [Example 520, N-{[3-({2-Chloro-5-[5-(methylsulfonyl)-1-(3-morpholin-4-ylpropyl)-4,5,6,7-tetrahydro-1H-pyrazolo[4,3-c]pyridin-3-yl]phenyl}ethynyl)phenyl]methyl}-2-methylpropan-1-amine] | 440
14 |  | CS(=O)(=O)N1CCc2c(c(-c3ccc(Cl)c(C#Cc4cccc(CNCc5cccnc5)c4)c3)nn2CCCN2CCOCC2)C1 [Example 521, 1-[3-({2-Chloro-5-[5-(methylsulfonyl)-1-(3-morpholin-4-ylpropyl)-4,5,6,7-tetrahydro-1H-pyrazolo[4,3-c]pyridin-3-yl]phenyl}ethynyl)phenyl]-N-(pyridin-3-ylmethyl)methanamine] | 370
15 |  | CS(=O)(=O)N1CCc2c(c(-c3ccc(Cl)c(C#Cc4cccc(CNCc5ccncc5)c4)c3)nn2CCCN2CCOCC2)C1 [Example 522, 1-[3-({2-Chloro-5-[5-(methylsulfonyl)-1-(3-morpholin-4-ylpropyl)-4,5,6,7-tetrahydro-1H-pyrazolo[4,3-c]pyridin-3-yl]phenyl}ethynyl)phenyl]-N-(pyridin-4-ylmethyl)methanamine] | 330
16 |  | CC(C)CN1CCc2cc(C#Cc3cc(-c4nn(CCCN5CCOCC5)c5c4CN(S(C)(=O)=O)CC5)ccc3Cl)ccc2C1 [Example 523, 6-({2-Chloro-5-[5-(methylsulfonyl)-1-(3-morpholin-4-ylpropyl)-4,5,6,7-tetrahydro-1H-pyrazolo[4,3-c]pyridin-3-yl]phenyl}ethynyl)-2-(2-methylpropyl)-1,2,3,4-tetrahydroisoquinoline] | 530
17 |  | CS(=O)(=O)c1ccc(CNCc2cccc(C#Cc3cc(-c4nn(CCCN5CCOCC5)c5c4CN(S(C)(=O)=O)CC5)ccc3Cl)c2)cc1 [Example 524, 1-[3-({2-Chloro-5-[5-(methylsulfonyl)-1-(3-morpholin-4-ylpropyl)-4,5,6,7-tetrahydro-1H-pyrazolo[4,3-c]pyridin-3-yl]phenyl}ethynyl)phenyl]-N-{[4-(methylsulfonyl)phenyl]methyl}methanamine] | 530

Source: patent US20080200454A1, “CARBON-LINKED TETRAHYDRO-PYRAZOLO-PYRIDINE MODULATORS OF CATHEPSIN S” (priority 2007, published 2008)
